Data published in patent US20250230193A1, “CYCLIC COMPOUND HAVING SELECTIVE KRAS INHIBITORY EFFECT ON HRAS AND NRAS” (CHUGAI SEIYAKU KABUSHIKI KAISHA, priority 2022, published 2025).
Where a SMILES comes first, the peptide text is derived from it. Bridges are numbered along the chain shown (N, C = ends). [ ]: non-standard residue; d: D form. The star is where a group is joined. hPhe(3-Cl-4-CF3) = N[C@@H](CCc1ccc(C(F)(F)F)c(Cl)c1)C(=O)O; NPrPhe(4-CF3) = CCCN[C@@H](Cc1ccc(C(F)(F)F)cc1)C(=O)O; NEtPhe(4-Me) = CCN[C@@H](Cc1ccc(C)cc1)C(=O)O; NMeGly(cPent) = CN[C@H](C(=O)O)C1CCCC1; NMeD = CN[C@@H](CC(=O)O)C(=O)O; NMeL = CN[C@@H](CC(C)C)C(=O)O; hPip = O=C(O)[C@@H]1CCCCCN1; Pip = O=C(O)[C@@H]1CCCCN1; Morpholide = C1CN(*)CCO1; NMeA = CN[C@@H](C)C(=O)O; NMeAib = CNC(C)(C)C(=O)O; Nle = CCCC[C@H](N)C(=O)O; Piperidide = C1CCN(*)CC1; Ac5c = NC1(C(=O)O)CCCC1; Aze = O=C(O)[C@@H]1CCN1; Sar = CNCC(=O)O

Legend:
[1] = biological target: GDP-bound NRAS wild-type protein (Homo sapiens, UniProt P01111); test: Binding to NRAS by surface plasmon resonance (SPR), Single Cycle Kinetics
[2] = biological target: GDP-bound HRAS wild-type protein (Homo sapiens, UniProt P01112); test: Binding to HRAS by surface plasmon resonance (SPR), Single Cycle Kinetics
[3] = SPR, GDP-bound NRAS wild-type vs GDP-bound KRAS wild-type
[4] = SPR, GDP-bound HRAS wild-type vs GDP-bound KRAS wild-type

Sequence of GDP-bound NRAS wild-type protein (P01111 whole entry): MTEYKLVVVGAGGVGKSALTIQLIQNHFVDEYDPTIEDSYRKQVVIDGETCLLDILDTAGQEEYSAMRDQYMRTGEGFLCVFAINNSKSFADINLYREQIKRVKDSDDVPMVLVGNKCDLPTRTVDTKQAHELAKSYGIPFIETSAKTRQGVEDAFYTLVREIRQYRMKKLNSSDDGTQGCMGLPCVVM
Sequence of GDP-bound HRAS wild-type protein (P01112 whole entry): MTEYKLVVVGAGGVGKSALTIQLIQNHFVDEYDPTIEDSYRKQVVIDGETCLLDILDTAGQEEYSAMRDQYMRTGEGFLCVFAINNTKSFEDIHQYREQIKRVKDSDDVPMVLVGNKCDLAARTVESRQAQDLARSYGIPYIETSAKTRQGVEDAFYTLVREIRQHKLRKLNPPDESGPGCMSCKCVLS

## CCC[C@H]1C(=O)N[C@@H](CC(C)C)C(=O)N(C2CC2)CC(=O)N(C)[C@H]2C/C=C\CCN(C2=O)[C@@H](Cc2ccc(C)cc2)C(=O)N(C)CC(=O)N[C@@H](CCc2ccc(C(F)(F)F)c(OC)c2)C(=O)N2C[C@H](OCC)C[C@H]2C(=O)NC2(CCC2)C(=O)N(C)[C@@H](C2CCCC2)C(=O)N(C)[C@H](C(=O)N(C)C)CC(=O)N1C [PP2534]
[1]; KD ratio NRAS/KRAS, class symbols
  NRAS/KRAS (ratio of KD value with respect to GDP-bound NRAS wild-type protein to KD value with respect to KRAS): A (a compound having 10 or more and less than 20 is denoted as A)
[2]; KD ratio HRAS/KRAS, class symbols
  HRAS/KRAS (ratio of KD value with respect to GDP-bound HRAS wild-type protein to KD value with respect to KRAS): B (a compound having 3 or more and less than 10 is denoted as B)

## CCCC[C@@H]1NC(=O)[C@H](CCc2ccc(C(F)(F)F)c(Cl)c2)NC(=O)CN(C)C(=O)[C@H](Cc2ccc(C)cc2)N(CC)C(=O)[C@@H]2CCN2C(=O)[C@H](C)N(C)C(=O)[C@H]([C@@H](C)CC)NC(=O)[C@H](CC(C)C)N(C)C(=O)C[C@@H](C(=O)N2CCCCC2)N(C)C(=O)[C@H](CC(C)C)NC(=O)C(C)(C)N(C)C1=O [PP0048] ([NMeL]I[NMeA][Aze][NEtPhe(4-Me)][Sar][hPhe(3-Cl-4-CF3)][Nle][NMeAib]L[NMeD]-Piperidide; lactam N-11)
[1]; KD ratio NRAS/KRAS, SPR
  NRAS/KRAS (ratio of KD for GDP-bound NRAS wild-type to KD for KRAS): C (A compound having a KD ratio of 0.1 or more and less than 3 is denoted as C)
[2]; KD ratio HRAS/KRAS, SPR
  HRAS/KRAS (ratio of KD for GDP-bound HRAS wild-type to KD for KRAS): C (A compound having a KD ratio of 0.1 or more and less than 3 is denoted as C)

## CCC[C@H]1C(=O)N[C@@H]([C@@H](C)CC)C(=O)N(C)CC(=O)N(C)[C@H]2C/C=C\CCN(C2=O)[C@@H](Cc2ccc(C(F)(F)F)cc2)C(=O)N(C)CC(=O)N[C@@H](CCc2cc(F)c(C(F)(F)F)c(F)c2)C(=O)N2C[C@H](OCC)C[C@H]2C(=O)NC2(CC(C)(C)C2)C(=O)N(C)[C@@H](C(CC)CC)C(=O)N(C)[C@H](C(=O)N(C)C)CC(=O)N1C [PP2125]
[1]; [3]
  NRAS/KRAS (ratio of KD value with respect to NRAS to KD value with respect to KRAS): AA (a compound having 20 or more is denoted as AA)
[2]; [4]
  HRAS/KRAS (ratio of KD value with respect to HRAS to KD value with respect to KRAS): A (a compound having 10 or more and less than 20 is denoted as A)

## CCC(CC)[C@H]1C(=O)N(C)[C@H](C(=O)N(C)C)CC(=O)N(C)[C@@H](COC)C(=O)N[C@@H]([C@@H](C)CC)C(=O)N(C)CC(=O)N(C)[C@H]2C/C=C\CCN(C2=O)[C@@H](CC2CCCCC2)C(=O)N(C)CC(=O)N[C@@H](CCc2ccc(C(F)(F)F)c(OC)c2)C(=O)N2C[C@@H](C)C[C@H]2C(=O)NC2(CC(C)(C)C2)C(=O)N1C [PP2466]
[1]; [3]
  NRAS/KRAS (ratio of KD value with respect to NRAS to KD value with respect to KRAS): A (a compound having 10 or more and less than 20 is denoted as A)
[2]; [4]
  HRAS/KRAS (ratio of KD value with respect to HRAS to KD value with respect to KRAS): A (a compound having 10 or more and less than 20 is denoted as A)

## CCCN1C(=O)CN(C)C(=O)[C@@H]2CCN2C(=O)[C@H]([C@@H](C)CC)NC(=O)[C@@H]2CCCCCN2C(=O)C[C@@H](C(=O)N2CCOCC2)N(C)C(=O)[C@H](C2CCCC2)N(C)C(=O)C2(CCCC2)NC(=O)[C@@H]2CCCN2C(=O)[C@H](CCc2ccc(C(F)(F)F)c(Cl)c2)NC(=O)CN(C)C(=O)[C@@H]1Cc1ccc(C(F)(F)F)cc1 [PP0302] ([hPip]I[Aze][Sar][NPrPhe(4-CF3)][Sar][hPhe(3-Cl-4-CF3)]P[Ac5c][NMeGly(cPent)][NMeD]-Morpholide; lactam N-11)
[1]; KD ratio NRAS/KRAS, SPR
  NRAS/KRAS (ratio of KD for GDP-bound NRAS wild-type to KD for KRAS): B (a compound having 3 or more and less than 10 is denoted as B)
[2]; KD ratio HRAS/KRAS, SPR
  HRAS/KRAS (ratio of KD for GDP-bound HRAS wild-type to KD for KRAS): C (A compound having a KD ratio of 0.1 or more and less than 3 is denoted as C)

## CCCOC[C@H]1C(=O)N[C@@H]([C@@H](C)CC)C(=O)N(C)CC(=O)N(C)[C@H]2C/C=C\CCN(C2=O)[C@@H](Cc2ccc(C(F)(F)F)cc2)C(=O)N(C)CC(=O)N[C@@H](CCc2ccc(C(F)(F)F)c(OC)c2)C(=O)N2C[C@@H](C)C[C@H]2C(=O)NC2(CCC2)C(=O)N(C)[C@@H](C2CCCC2)C(=O)N(C)[C@H](C(=O)N(C)CCC)CC(=O)N1C [PP2028]
[1]; KD ratio, GDP-bound NRAS wild-type vs GDP-bound KRAS wild-type, SPR
  NRAS/KRAS (ratio of KD value for NRAS to KD value for KRAS): A (a compound having 10 or more and less than 20 is denoted as A)
[2]; KD ratio, GDP-bound HRAS wild-type vs GDP-bound KRAS wild-type, SPR
  HRAS/KRAS (ratio of KD value for HRAS to KD value for KRAS): B (a compound having 3 or more and less than 10 is denoted as B)

## CCCN1C(=O)CN(C)C(=O)[C@@H]2CCN2C(=O)[C@H]([C@@H](C)CC)NC(=O)[C@H](CC(C)C)N(C)C(=O)C[C@@H](C(=O)N2CCOCC2)N(C)C(=O)[C@H](C2CCCC2)N(C)C(=O)C2(CCCC2)NC(=O)[C@@H]2CCCCN2C(=O)[C@H](CCc2ccc(C(F)(F)F)c(Cl)c2)NC(=O)CN(C)C(=O)[C@@H]1Cc1ccc(C(F)(F)F)cc1 [PP0311] ([NMeL]I[Aze][Sar][NPrPhe(4-CF3)][Sar][hPhe(3-Cl-4-CF3)][Pip][Ac5c][NMeGly(cPent)][NMeD]-Morpholide; lactam N-11)
[1]; KD ratio NRAS/KRAS, SPR
  NRAS/KRAS (ratio of KD for GDP-bound NRAS wild-type to KD for KRAS): B (a compound having 3 or more and less than 10 is denoted as B)
[2]; KD ratio HRAS/KRAS, SPR
  HRAS/KRAS (ratio of KD for GDP-bound HRAS wild-type to KD for KRAS): B (a compound having 3 or more and less than 10 is denoted as B)
